Counter-ions that a name gives are not always drawn. Like-named read-outs stand apart in the source and are kept apart here.
How the values were obtained:
Assay in all cases: Cell proliferation assay at 10 μM
MOLM-14 = assay type: cell-based, human; conditions: for viability at 10 µM: Homo sapiens, read-out: Cell viability observed at 10 μM
Description: (§1) The human melanoma cell line A375 and colorectal carcinoma cell line HCT-116 were cultured in Dulbecco's modified Eagle's medium supplemented with 10% fetal bovine serum and 1% Penicillin-Streptomycin. The human leukemia cell line MOLM-14 was cultured in Minimum Essential Medium Alpha Medium supplemented with 10% Fetal Bovine Serum and 1% Penicillin-Streptomycin. All the cell lines were maintained at 37° C. with 5% CO2.
For MOLM-14 cell line, which grows in suspension, 30,000 cells were plated onto 96-well plates immediately before the assay.
(§2) Compounds were added at different concentrations to each well, and cell cultures were incubated for 72 h. Vehicle (DMSO or H2O) was used as a control, and all compounds were tested in a constant percentage of vehicle. Cell outgrowth was measured using for adherent cells CellTiter […] Aqueous One Solution Cell Proliferation Assay (Promega) and for cell suspension, Sulforhodamine B colorimetric assay as described in Vichai et al. (Vichai, V. and Kirtikara, K. Nat. Protoc. 2006 (1) 1112-1116). Absorbance was measured using an Infinite F200 Pro or Sunrise TECAN plate reader.
(§3) In each experiment, each point represents the average of two replicates in cell culture.
(§4) Results are presented in Table 1 below for concentrations of 10 μM of tested compounds.

HCT-116 = assay type: cell-based; conditions: Homo sapiens, HCT-116, 72 h
Description: as §1
(§5) Briefly, adherent cells, A375 and HCT-116 cells were respectively plated at 800 or 5,000 cells per well onto 96-well plates in 90 μL of media per well and were allowed to grow overnight before the assay.
as §2, §3, §4

A375 = assay type: cell-based, human; conditions: for viability at 10 µM: Homo sapiens, read-out: Cell viability observed at 10 μM
Description: as §1, §5, §2, §3, §4

[1] = MOLM-14, 10 μM, 72 h, % of cell viability remaining
[2] = HCT-116, 10 μM, 72 h, % of cell viability remaining, read-out: Cell viability observed at 10 μM
[3] = A-375, A375, 10 μM, 72 h, % of cell viability remaining
[4] = A375, 10 μM, 72 h, % of cell viability remaining
[5] = read-out: Cell viability observed at 10 μM

| SMILES | viability at 10 µM (MOLM-14; MOLM-14, 72 h) [%] | viability at 10 µM (HCT-116; [5]) [%] | viability at 10 µM (A375; A-375, 72 h) [%] | also measured |
| --- | --- | --- | --- | --- |
| CCN(CC)C1CCN(c2cc(-c3ccccc3)nc3ccccc23)CC1 [Compound I-3, 2-phenyl-4-(4-N,N-diethylamino-piperidin-1-yl)quinoline] |  |  |  | viability at 10 µM (MOLM-14; [1]): 60 to 80%; viability at 10 µM (HCT-116; [2]): > 80%; viability at 10 µM (A375; [3]): > 80% |
| CCN(CC)C1CCN(c2cc(-c3ccccc3)nc3ccccc23)CC1.Cl.Cl [Compound I-4, 2-phenyl-4-(4-N,N-diethylamino-piperidin-1-yl)quinoline dihydrochloride] |  |  |  | Cell viability observed at 10 μM (MOLM-14; [1]): + (cell viability 60>%<80); Cell viability observed at 10 μM (A375; [4]): − (cell viability %>80) |
| c1ccc(-c2cc(N3CCC(N4CCOCC4)CC3)c3ccccc3n2)cc1 [Compound V-2, 2-phenyl-4-[(4-morpholin-4-yl)piperidin-1yl]quinoline dihydrochloride] | 60 to 80 | > 80 | > 80 |  |
| CCN(CC)C1CCN(c2cc(-c3ccc(Cl)cc3)nc3ccccc23)CC1 [Compound X-6, 2-(4-chloro-phenyl)-4-(4-N,N-diethylamino-piperidin-1-yl)quinoline dihydrochloride] | 40 to 60 | < 20 | < 20 |  |
| CCN(CC)C1CCN(c2cc(-c3ccccc3)nc3cc(Cl)ccc23)CC1 [II-4, 7-chloro-2-phenyl-4-(4-N,N-diethylamino-piperidin-1-yl)quinoline dihydrochloride] | 60 to 80 | 20 to 40 | < 20 |  |
| c1ccc(-c2cc(N3CCC(N4CCCCC4)CC3)c3ccccc3n2)cc1 [III-4, 2-phenyl-4-([1,4′]-bipiperidin-1′-yl)quinoline dihydrochloride] | 60 to 80 | > 80 | > 80 |  |
| CC(C)(C)NC1CCN(c2cc(-c3ccccc3)nc3ccccc23)CC1 [IV-2, 2-phenyl-4-(4-N-tert-butylamino-piperidin-1-yl)quinoline dihydrochloride] | 20 to 40 | 60 to 80 | 40 to 60 |  |
| CCN(CC)C1CCN(c2cc(-c3ccc4ccccc4c3)nc3ccccc23)CC1 [VI-6, 2-(2-naphtyl)-4-(4-N,N-diethylamino-piperidin-1-yl)quinoline dihydrochloride] | < 20 | < 20 | < 20 |  |
| CCN(CC)C1CCN(c2cc(-c3ccc(Br)cc3)nc3ccccc23)CC1 [VIII-6, 2-(4-bromo-phenyl)-4-(4-N,N-diethylamino-piperidin-1-yl)-quinoline dihydrochloride] | 20 to 40 |  | < 20 | viability at 10 µM (HCT-116; [2]): < 20% |
| CN(C)CCCNc1cc(-c2ccccc2)nc2ccccc12.Cl.Cl [XLI-2, N^1,N^1-dimethyl-N^3-(2-phenylquinoline-4-yl)propane-1,3-diamine hydrochloride salt] |  |  |  | Cell viability observed at 10 μM (MOLM-14; [1]): ++++ (cell viability %<20); Cell viability observed at 10 μM (A375; [4]): ++++ (cell viability %<20) |
| CN(C)CCCNC(=O)c1cc(-c2ccccc2)nc2cc(Cl)ccc12 [XLIII-2, N-[3-(dimethylamino)propyl]-7-chloro-2-phenylquinoline-4-carboxamide hydrochloride salt] | 60 to 80 | > 80 | < 20 |  |
| CN(C)CCCNCc1cc(-c2ccccc2)nc2cc(Cl)ccc12 [XLIV-2, N^1,N^1-dimethyl-N^3-(7-chloro-2-phenylquinoline-4-ylmethyl)-propane-1,3-diamine hydrochloride salt] | < 20 | < 20 | < 20 |  |
| CCN(CC)C1CCN(C(=O)c2cc(-c3ccccc3)nc3ccccc23)CC1 [XVIII-2, 4-[4-(N,N-diethylamino)piperidin-1-ylcarbonyl]-2-phenyl-quinoline dihydrochloride] |  |  |  | viability at 10 µM (MOLM-14; [1]): > 80%; viability at 10 µM (HCT-116; [2]): > 80%; viability at 10 µM (A375; [3]): > 80% |
| CCN(CC)C1CCN(Cc2cc(-c3ccccc3)nc3ccccc23)CC1 [XX-5, 2-phenyl-4-[4-(N,N-diethylamino)-piperidin-1-ylmethyl]quinoline dihydrochloride] | 40 to 60 | > 80 | 60 to 80 |  |
| CC(c1cc(-c2ccccc2)nc2ccccc12)N1CCC(N(CCc2ccccc2)Cc2ccccc2)CC1 (stereo not shown) [XXI-4, 2-phenyl-4-{1-{4-[benzyl(phenethyl)amino]-piperidin-1-yl}-eth-1-yl}quinoline dihydrochloride] | > 80 | > 80 | > 80 |  |
| CN(c1cc(-c2ccccc2)nc2cc(Cl)ccc12)C1CCN(Cc2ccccc2)CC1 [XXIX-2, 7-chloro-2-phenyl-4-[N-methyl-N—(N-benzylpiperidin-4-yl)-amino]quinoline hydrochloride salt] |  |  |  | viability at 10 µM (MOLM-14; [1]): > 80%; viability at 10 µM (HCT-116; [2]): > 80%; viability at 10 µM (A375; [3]): > 80% |
| CCN(CC)CC1CCN(c2cc(-c3ccccc3)nc3cc(Cl)ccc23)CC1 [XXVI-4, 7-chloro-2-phenyl-4-[4-(N,N-diethylaminomethyl)-piperidin-1-yl]-quinoline hydrochloride salt] | > 80 | > 80 | > 80 |  |
| CCN(CC)CC1CCN(c2cc(-c3ccccc3)nc3ccccc23)CC1 [XXVII-2, 2-phenyl-4-[4-(N,N-diethylaminomethyl)-piperidin-1-yl)quinoline hydrochloride salt] | 40 to 60 | > 80 | 20 to 40 |  |
| CC(c1ccccc1)N1CCC(N(C)c2cc(-c3ccccc3)nc3cc(Cl)ccc23)CC1 (stereo not shown) [XXX-2, 7-chloro-2-phenyl-4-[N-methyl-N—(N-1-phenylethyl-piperidin-4-yl)-amino]quinoline] | 60 to 80 |  | > 80 | viability at 10 µM (HCT-116; read-out: Cell viability observed at 10 μM, HCT-116, 10 μM, 72 h, % of cell viability remaining): > 80% |
| CC(c1ccccc1)N1CCC(N(C)c2cc(-c3ccccc3)nc3ccccc23)CC1 (stereo not shown) [XXXI-2, 2-phenyl-4-[N-methyl-N—(N-1-phenylethyl-piperidin-4-yl)-amino]quinoline hydrochloride salt] |  |  |  | viability at 10 µM (MOLM-14; [1]): > 80%; viability at 10 µM (HCT-116; [2]): > 80%; viability at 10 µM (A375; [3]): > 80% |
| O=C(NC1CCN(Cc2ccccc2)CC1)c1cc(-c2ccccc2)nc2cc(Cl)ccc12 [XXXII-2, N-(1-benzylpiperidin-4-yl)-7-chloro-2-phenylquinoline-4-carboxamide hydrochloride salt] | 40 to 60 | > 80 | > 80 |  |
| CC(NC1CCN(Cc2ccccc2)CC1)c1cc(-c2ccccc2)nc2ccccc12 (stereo not shown) [XXXIV-2, 2-phenyl-4-{1-[(N-benzyl-piperidin-4-yl)amino]-eth-1-yl}quinoline hydrochloride salt] | 40 to 60 | 20 to 40 | < 20 |  |
| CN(C)CCCN(C)c1cc(-c2ccc3ccccc3c2)nc2ccccc12 [XXXIX-2, N^1,N^1,N^3-trimethyl-N^3-[2-(naphthalen-2-yl)-quinoline-4-yl]-propane-1,3-diamine hydrochloride salt] | < 20 | < 20 | < 20 |  |
| CC(NC1CCN(Cc2ccccc2)CC1)c1cc(-c2ccccc2)nc2cc(Cl)ccc12 (stereo not shown) [XXXV-2, 7-chloro-2-phenyl-4-{1-[(N-benzyl-piperidin-4-yl)amino]-eth-1-yl}quinoline hydrochloride salt] | > 80 | > 80 | > 80 |  |

Reference: US10179770B2, “Quinolines derivatives as novel anticancer agents” (GENOSCIENCE PHARMA, priority 2013, dated 2019)
